Assay in all cases: NCI-60 cell line screen, 48 h
Experiment [1] concerns 786-0 renal.
The subject of experiment [2] is CCRF-CEM leukemia.
In experiment [3] the test system is HCT-15 colon.
Experiment [4] deals with HS 578T breast.
Experiment [5] concerns PC-3 prostate.
Experiment [6] has as its system SF-268 CNS.
The subject of experiment [7] is SF-539 CNS.
Experiment [8] relates to SK-MEL-28 melanoma.
For experiment [9], the system named is SR leukemia.
The test system of experiment [10] is UO-31 renal.

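These data come from cells grown in 96-well plates and exposed to compound for 48 hours at five concentrations. GI50 is the concentration that inhibits growth by half. TGI: concentration producing complete growth inhibition.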

Regarding `CC1(C)N=C(N)N=C(N)N1c1ccc(OCCCCNC(=O)c2ccc(S(=O)(=O)F)cc2)c(Cl)c1`, the GI50 in experiment [1] was 5.72 µM; in experiment [2], 5.65 µM; in experiment [3], 23.3 µM; in experiment [4], above 100 µM; in experiment [5] it was 0.743 µM; in experiment [6] it was 6.21 µM. For the same compound, the GI50 in experiment [7] is 7.11 µM; in [8] it was 54.1 µM; in experiment [9], 4.95 µM; in experiment [10], 48.8 µM. For the same compound, the TGI in [1], in experiment [2], in experiment [3], in [4], in [5] and in experiment [6] was above 100 µM throughout. In addition, the TGI in [7], in experiment [8], in experiment [9] and in [10] was above 100 µM each time.
As for `Cn1c(O)c(N=NC(N)=S)c2ccccc21`, the GI50 is 58.7 µM in experiment [1]; 62.1 µM in [2]; 44.6 µM in [3]; 23.4 µM in experiment [4]; 79.9 µM in [5]; 62.8 µM in experiment [6]. The GI50 is above 100 µM in experiment [7], above 100 µM in experiment [8] and 90.1 µM in experiment [9]. The TGI in experiment [1], in experiment [2], in [3], in experiment [4], in experiment [5] and in experiment [6] was above 100 µM throughout. The TGI in experiment [7], in experiment [8] and in [9] was above 100 µM in each case.
For `O=c1[nH]cnc2nc(-c3ccc(N(CCCl)CCCl)cc3)[nH]c12`, the GI50 was 18.3 µM in experiment [1]; above 100 µM in [2]; 9.81 µM in [3]; 27.2 µM in [4]; above 100 µM in [5]; 28.6 µM in experiment [6]. The GI50 is 15.1 µM in [7], above 100 µM in [8], above 100 µM in experiment [9] and 10.4 µM in [10]. For the same compound, the TGI was 53.2 µM in experiment [1]; above 100 µM in experiment [2]; above 100 µM in experiment [3]; above 100 µM in [4]; above 100 µM in [5]; above 100 µM in experiment [6]. Moreover, the TGI in [7] is 63 µM; in [8] it was above 100 µM; in experiment [9], above 100 µM; in experiment [10] it was 38.3 µM.
As to `O=C(Nc1ccccc1C(=O)Nc1nccs1)c1ccccc1`, the TGI in experiment [1] is above 100 µM; in [2] it was above 100 µM; in [3], above 100 µM; in experiment [4] it was above 100 µM; in experiment [5] it was above 100 µM; in experiment [6], 60.9 µM. In addition, the TGI in [7], in experiment [8], in experiment [9] and in experiment [10] was above 100 µM throughout.
For the compound `CCC1CCC2c3c([nH]c4ccccc34)C3C(=O)N(c4ccc(OC)cc4)C(=O)C3C2C1` (stereo unspecified), the TGI is above 100 µM in experiment [1]; 26.7 µM in experiment [2]; above 100 µM in experiment [3]; 66.8 µM in experiment [4]; above 100 µM in [5]; above 100 µM in experiment [6]. Further, the TGI in experiment [7] was above 100 µM; in experiment [8], above 100 µM; in [9], 32.1 µM; in experiment [10], above 100 µM.
Turning to `COc1cc(CC2CC(c3ccc4c(c3)OCO4)OC2=O)cc(OC)c1OC` (stereo unspecified), the TGI in [1], in experiment [2], in [3], in experiment [4], in experiment [5] and in experiment [6] was above 100 µM each time. Besides, the TGI in experiment [7] was above 100 µM; in experiment [8], above 100 µM; in experiment [9], above 100 µM; in [10], 82.4 µM.
On to `C[C@]12CC[C@H]3[C@@H](CCC4=C[C@@H](OC5OCC(OC6OC(CO)C(O)C(O)C6O)C(O)C5O)CC[C@@]43C=O)[C@@]1(O)CCC2C1=CC(=O)OC1` (stereo partly specified), for which the TGI was 1.23 µM in [1]; above 100 µM in experiment [2]; 1.76 µM in experiment [3]; above 100 µM in experiment [4]; 4.14 µM in experiment [5]; 1.64 µM in [6]. The TGI amounted to 1.68 µM in experiment [7], 9.62 µM in [8], 0.627 µM in experiment [9] and 3.45 µM in experiment [10].
Turning to `CC(C)N(Cc1ccccc1)S(=O)(=O)c1n[nH]c(C(C)(C)C)n1`, the TGI in [1], in [2], in experiment [3], in [4], in experiment [5] and in [6] was above 100 µM each time. Moreover, the TGI in [7], in [8], in [9] and in experiment [10] was above 100 µM each time.
`COc1ccc(S(=O)(=O)n2c3ccccc3n3ncc(-c4nnc(C)o4)c23)cc1`: the GI50 in experiment [1] is 0.688 µM; in experiment [2] it was 0.431 µM; in [3], 0.424 µM; in experiment [4], 0.394 µM; in [5], 0.478 µM; in experiment [6] it was 3.11 µM. For the same compound, the GI50 in [7] is 0.361 µM; in [8], 11.3 µM; in experiment [9], 0.77 µM; in experiment [10], 0.474 µM. Moreover, the TGI is above 71.3 µM in experiment [1]; above 100 µM in experiment [2]; above 75.8 µM in [3]; above 100 µM in experiment [4]; above 100 µM in experiment [5]; above 74.1 µM in experiment [6]. Moreover, the TGI in experiment [7] was 7.92 µM; in experiment [8], 34.8 µM; in [9], above 100 µM; in experiment [10] it was 21.7 µM.
In the case of `O=C(Nc1ccc(-c2ccnc(Nc3ccc(N4CCOCC4)cc3)n2)cc1)C1CCCN1` (stereo unspecified), the GI50 in experiment [1] is 4.94 µM; in [2], 2.36 µM; in [3] it was 0.639 µM; in [4], 3 µM; in experiment [5], 1.79 µM; in experiment [6], 4.9 µM. Besides, the GI50 in experiment [7] is 2.33 µM; in experiment [8] it was 8.95 µM; in [10], 4.06 µM. The TGI in experiment [1] was 20.2 µM; in experiment [2], 39.9 µM; in experiment [3], 18.9 µM; in [4], 24.8 µM; in experiment [5], 31.9 µM; in experiment [6] it was 44.8 µM. Also, the TGI in experiment [7] was 14.2 µM; in experiment [8] it was 22.3 µM; in experiment [9] it was above 25.6 µM; in experiment [10], 24.2 µM.
As to `O=C1NC(O)CCN1C1CC(O)C(CO)O1` (stereo unspecified), the TGI in experiment [1], in experiment [2], in experiment [3], in experiment [4], in experiment [5] and in [6] was above 100 µM each time. Also, the TGI in experiment [7], in [8], in experiment [9] and in [10] was above 100 µM throughout.
As to `Cc1cc(Cl)ccc1NC(=O)NC(C)(C)COC(=O)Nc1cccc(Cl)c1`, the GI50 is 24.2 µM in [1]; 3.88 µM in experiment [2]; 2.48 µM in experiment [3]; 5.65 µM in experiment [4]; 3.66 µM in experiment [5]; 13.5 µM in experiment [6]. Besides, the GI50 in [7] is 9.4 µM; in [8], 22.3 µM; in experiment [9], 8.31 µM; in [10], 7.11 µM. Further, the TGI in [1] is above 100 µM; in experiment [2], 37.3 µM; in [3], 13.1 µM; in experiment [4], 39 µM; in experiment [5], 52.1 µM; in [6], 78 µM. The TGI is above 100 µM in experiment [7], above 100 µM in experiment [8], above 100 µM in [9] and 80.7 µM in experiment [10].
On to `O=C(O)c1ccc2cccnc2c1O`, for which the GI50 in experiment [1] was 2.4 µM; in experiment [2] it was 0.989 µM; in experiment [3] it was 0.994 µM; in [4], 0.724 µM; in [6] it was 0.999 µM; in experiment [7], 1.19 µM. Also, the GI50 in experiment [8] was 3.69 µM; in [9], 2.23 µM; in [10], 1.14 µM. For the same compound, the TGI in [1] was 24.8 µM; in experiment [2], above 60.8 µM; in experiment [3], above 100 µM; in [4] it was above 79.8 µM; in experiment [5], above 100 µM; in [6], 98.5 µM. Moreover, the TGI in experiment [7] was 12.8 µM; in experiment [8], above 100 µM; in [9], above 100 µM; in experiment [10] it was 8.65 µM.
Turning to `O[C@H](CN1CC1)[C@@H](O)CN1CC1`, the GI50 in [1] was 3.42 µM; in [2], 0.604 µM; in experiment [3], 10.6 µM; in experiment [4], 20.4 µM; in experiment [5], 15.1 µM; in experiment [6] it was 2.6 µM. In addition, the GI50 in [7] was 2.58 µM; in [8], 19.5 µM; in experiment [9], 0.452 µM; in experiment [10], 2.65 µM. For the same compound, the TGI in experiment [1] was 13.5 µM; in experiment [2] it was above 100 µM; in experiment [3] it was 88.9 µM; in experiment [4], 79.2 µM; in experiment [5] it was above 100 µM; in experiment [6], 30.8 µM. For the same compound, the TGI was 15.5 µM in experiment [7], 84.7 µM in experiment [8], above 100 µM in [9] and 13.1 µM in experiment [10].
Turning to `Cc1nc2sc(C(=O)Nc3cccc(Cl)c3C)c(N)c2cc1C(C)O` (stereo unspecified), the GI50 was 0.449 µM in experiment [1]; 0.115 µM in experiment [2]; 0.091 µM in [3]; 0.182 µM in experiment [4]; 0.286 µM in experiment [5]; 5.75 µM in experiment [6]. Besides, the GI50 is 0.181 µM in experiment [7], 5.8 µM in experiment [8], 0.0418 µM in [9] and 0.61 µM in [10]. In addition, the TGI in experiment [1] is above 49.2 µM; in [2] it was above 54.7 µM; in [3], above 39.6 µM; in experiment [4], above 74.9 µM; in experiment [5], above 100 µM; in experiment [6], above 82.2 µM. Besides, the TGI was 1.9 µM in experiment [7], above 55.6 µM in [8], above 51.7 µM in experiment [9] and 29.2 µM in experiment [10].
Regarding `CC(C)(O)CCC(O)C(C)(O)C1CCC2(O)C3=CC(=O)C4(O)CC(O)C(O)CC4(C)C3CCC12C` (stereo unspecified) (tested in a mixture with another compound), the TGI in experiment [1], in experiment [2], in [3], in experiment [4], in experiment [5] and in [6] was above 100 µM in each case. Moreover, the TGI in [7], in experiment [8], in experiment [9] and in [10] was above 100 µM each time.
Take `O=C(Nc1cccc([N+](=O)[O-])c1)c1cc2ccccc2cc1O`: the GI50 is 1.28 µM in experiment [1]; 2.38 µM in experiment [2]; 2.75 µM in experiment [3]; 1.24 µM in experiment [4]; 1.49 µM in [5]; 2.98 µM in [6]. Also, the GI50 in [7] is 1.57 µM; in experiment [8], 3.23 µM; in [9] it was 1.46 µM; in experiment [10], 1.25 µM. The TGI in experiment [1] was 4.74 µM; in [2], 6.66 µM; in experiment [3], 28.3 µM; in [4], 10.4 µM; in [5], above 30.5 µM; in experiment [6], above 100 µM. The TGI in experiment [7] was 8.84 µM; in [8] it was above 100 µM; in experiment [9], 8.17 µM; in experiment [10] it was 7.46 µM.
For the compound `COc1cc(N=Nc2cccc(S(N)(=O)=O)c2)c2ccccc2c1N`, the TGI was 26.9 µM in experiment [1]; 38.6 µM in experiment [2]; 49.5 µM in [3]; above 27.2 µM in experiment [4]; 23.9 µM in [5]; 31.9 µM in experiment [6]. For the same compound, the TGI was found to be 9.19 µM in experiment [7], 19.9 µM in [8], 35.8 µM in experiment [9] and 30.6 µM in [10].

The record behind these values is PubChem BioAssay (NCI).
